Source: patent US5877165A, “Boronated porhyrins and methods for their use” (priority 1997, dated 1999)
Entries after “also recorded” stand apart in the source; their conditions may differ.

Key:
KHJJ mammary carcinomas [1] = experiment: Boron biodistribution, mice with KHJJ mammary carcinomas (Examples 4-7, Table 1); type: in vivo, BALB/c mice; settings: mouse, in vivo; for Boron Concentration: Blood / Boron Concentration: Brain / Boron Concentration: Tumor: ip, 160 mg/kg
Method: (§1) Female BALB/c mice (Taconic Farms, Germantown, N.Y.) (20-25 g) were implanted with either KHJJ or EMT-6 tumors. For KHJJ tumors, 1-3 mm^3 tumor fragments were implanted subcutaneously (s.c.) in the dorsal thorax of each mouse using an 18-gauge trocar. For EMT-6 tumors, 2.5×10^5 cells were implanted similarly using a 27-gauge needle. EMT-6 tumor cells were grown alternately in vivo and in vitro. Single-cell suspensions were prepared from mouse-grown tumors by trypsinization. These were grown in cell culture for several passages and then were frozen in 10% DMSO and stored in liquid nitrogen. Prior to implantation in mice, the cells were thawed and grown in tissue culture in Alpha-MEM with 10% FBS for several passages.
(§2) Under deep halothane anesthesia leading to euthanasia, right ventricular blood was collected in Microtainer (Becton-Dickinson, Rutherford, N.J.) tubes containing EDTA for hematological analyses and boron assays of whole blood and in Microtainer™ tubes containing lithium heparin for chemical analyses and enzyme assays of blood plasma. Tumor, brain, fat, muscle, and liver tissues were sampled at necropsy for boron analyses.
Direct current plasma-atomic emission spectroscopy [DCP-AES] (ARL/Fisons Model SS-7) was used (detection limit: 0.1 μg/ml). Samples (50-130 mg) were digested at 60° C. with sulfuric acid:nitric acid (1:1). Triton X-100 and water were added to give final concentrations of ≈50 mg tissue/ml, 15% total acid v/v and 5% Triton X-100 v/v. Fat and liver tissues were assayed for ^10 B by prompt-gamma spectroscopy (Fairchild, et al., 1986). The prompt-gamma measurements were multiplied by 5.0 to give the total boron concentrations due to the use of boron of natural isotope abundance in the syntheses of all boronated porphyrins reported.
Seven mice having KHJJ mammary carcinomas were given one intraperitoneal (i.p.) injection of 900 μg/g body weight of the boron compound presently used for BNCT of malignant brain tumors, p-boronophenylalanine (BPA) complexed with fructose. BPA was prepared in accordance with procedure described in Coderre, et al., 1996 incorporated herein by reference in its entirety as if set forth in full.
Mice were euthanized during the collection of blood while under Halothane anesthesia. At necropsy, the apparent states of structural integrity, consistency, color or abnormality, if any, of tissues were observed and tumor, brain and liver tissues were collected from each mouse for boron analysis.
Eight mice having KHJJ mammary carcinomas were injected with the NiTCP solution in the amount of 160 μg NiTCP/g body weight (36 μgB/g body weight) in six i.p. injections over 20 hours.
(§3) Six hours after the mice were last injected with NiTCP, mice were euthanized during the collection of blood while under Halothane anesthesia and right ventricular blood was collected from each mouse for hematological and chemical analysis without pooling the samples. At necropsy, the apparent states of structural integrity, consistency, color, or abnormality, if any, of tissues were observed and tumor, brain and liver tissues were collected from each mouse for boron analysis without pooling the samples.
Seven mice having KHJJ mammary carcinomas were injected with the NiTCP solution in the amount of 160 μg NiTCP/g body weight (36 μgB/g body weight) in six i.p. injections over 20 hours.
as §3, with “Sixteen hours” for “Six hours”, “were” for “were last”, “boron analysis. […]” for “boron analysis without pooling the samples.”

[2] = Hematological, enzymatic and chemical blood analyses and weight change, mice with KHJJ mammary carcinomas (Examples 8-12, Table 2); type: in vivo, BALB/c mice; settings: 244 μg/gbw; 17 hr to 4 d
Method: as §1, with “passages. […]” for “passages.”
(§4) Levels of glucose [GLU], blood urea nitrogen [BUN], blood creatinine [BCR], alanine transaminase [ALT], aspartate transaminase [AST], alkaline phosphatase [ALP], total protein [TPR], albumin [ALB], and creatine phosphokinase [CPK] were determined in blood plasma using a Cobas Fara II microanalysis system. Blood platelets [PLT] and white blood cells [WBC] were counted using a Serono-Baker System 9000 automated hematology microanalyzer. […]

[3] = Overall ranking of boronated porphyrins for BNCT guided by biodistribution and toxicity tests in mice (Table 11)
Method: The higher the numerical value, the better the performance of that porphyrin for that property. […] Although VCDP was able to deliver therapeutic amounts of boron to tumor, such side effects such as thrombocytopenia, which was induced within 3 hours after injections, weight loss, and the altered hepatic enzymes were serious enough to rank VCDP considerably behind the TCP's and the TCP-H's (Miura et al., 1992). In addition, the 80-hour drug administration period and the 90-hour blood clearance period are of great inconvenience. Moreover, this 4-day difference between the VCDP and the TCP (or TCP-H) dose and clearance schedules would translate into a 4-day greater delay between initiation of drug administration and neutron irradiation which would allow greater tumor growth to occur.
[…]
biodistribution and toxicity tests in mice. An asterisk indicates

[4] = Hematological, enzymatic and chemical blood analyses and weight change, mice with KHJJ mammary carcinomas (Examples 4-7, Table 1); type: in vivo, BALB/c mice; settings: NiTCP 160 or BPA 900 μg/gbw; 6-78 hr
Method: as §1, with “passages. […]” for “passages.”
as §4

KHJJ mammary carcinomas [5] = experiment: Boron biodistribution, mice with KHJJ mammary carcinomas (Examples 8-12, Table 2); set-up: species or system BALB/c mice; settings: mouse, in vivo
Method: as §1, §2
Direct current plasma-atomic emission spectroscopy [DCP-AES] (ARL/Fisons Model SS-7) was used (detection limit: 0.1 μg/ml). Samples (50-130 mg) were digested at 60° C. with sulfuric acid:nitric acid (1:1). […]

Nickel Tetracarboranylphenylporphyrin [NiTCP]
boron delivered to tumor relative to BPA (KHJJ mammary carcinomas [1]): twice the amount of boron to tumor than that of BPA
Boron Concentration: Blood (KHJJ mammary carcinomas [1]; 16 h): 13.2 (4.2-30.5) μg B/g
Boron Concentration: Brain (KHJJ mammary carcinomas [1]; 16 h): 3.8 (2.4-5.0) μg B/g
Boron Concentration: Tumor (KHJJ mammary carcinomas [1]; 16 h): 25.5 (16.2-38.7) μg B/g
Boron Concentration: Blood (KHJJ mammary carcinomas [1]; 78 h): 0.2 (0.4-5.8) μg B/g
Boron Concentration: Brain (KHJJ mammary carcinomas [1]; 78 h): 1.7 (0.1-0.2) μg B/g
Boron Concentration: Tumor (KHJJ mammary carcinomas [1]; 78 h): 17.0 (9.2-28.2) μg B/g
toxicity, in words [2]: non-toxic; also recorded: only slight differences in the results of blood chemical analyses between the NiTCP groups and the solvent-only control groups; also recorded: Weight loss was only observed 17 hours after the last injection of NiTCP
Drug tolerance/deliverable boron (ranking) [3]: 4
Lipophilicity (ranking) [3]: 2
Tumor uptake (normalized) (ranking) [3]: 3
Tumor:Blood (ranking) [3]: 3
toxicity, in words (general) ([3]; in vivo, at (potentially) therapeutic doses): substantially less toxic
toxicity, in words [4]: some minor, evidently transient, weight loss was noted six hours after the last NiTCP injection; also recorded: The BUN levels in mice given NiTCP at all three time points were higher than those in mice given BPA; also recorded: The ALP and ALT were somewhat depressed 78 hours after injections
retention of boron in tumor, in words (KHJJ mammary carcinomas [5]): the ability to retain the therapeutic amounts of boron in the tumor for several days
time before average blood boron concentration falls below 1 ppm (KHJJ mammary carcinomas [5]): 4 days
